Measurements reported in ChEMBL document CHEMBL4190397, “Design and Synthesis of Novel and Selective Glycine Transporter-1 (GlyT1) Inhibitors with Memory Enhancing Properties” (J Med Chem, 2018).

Tests used:
[1] = target: T1, Sodium- and chloride-dependent glycine transporter 2 (Homo sapiens, UniProt Q9Y345); test: Inhibition of recombinant human GlyT2 expressed in HEK293 cells assessed as reduction in [14C]glycine uptake after 2 hrs by microbeta scintillation counting method; type: cell-based
T1 sequence (Q9Y345 whole entry): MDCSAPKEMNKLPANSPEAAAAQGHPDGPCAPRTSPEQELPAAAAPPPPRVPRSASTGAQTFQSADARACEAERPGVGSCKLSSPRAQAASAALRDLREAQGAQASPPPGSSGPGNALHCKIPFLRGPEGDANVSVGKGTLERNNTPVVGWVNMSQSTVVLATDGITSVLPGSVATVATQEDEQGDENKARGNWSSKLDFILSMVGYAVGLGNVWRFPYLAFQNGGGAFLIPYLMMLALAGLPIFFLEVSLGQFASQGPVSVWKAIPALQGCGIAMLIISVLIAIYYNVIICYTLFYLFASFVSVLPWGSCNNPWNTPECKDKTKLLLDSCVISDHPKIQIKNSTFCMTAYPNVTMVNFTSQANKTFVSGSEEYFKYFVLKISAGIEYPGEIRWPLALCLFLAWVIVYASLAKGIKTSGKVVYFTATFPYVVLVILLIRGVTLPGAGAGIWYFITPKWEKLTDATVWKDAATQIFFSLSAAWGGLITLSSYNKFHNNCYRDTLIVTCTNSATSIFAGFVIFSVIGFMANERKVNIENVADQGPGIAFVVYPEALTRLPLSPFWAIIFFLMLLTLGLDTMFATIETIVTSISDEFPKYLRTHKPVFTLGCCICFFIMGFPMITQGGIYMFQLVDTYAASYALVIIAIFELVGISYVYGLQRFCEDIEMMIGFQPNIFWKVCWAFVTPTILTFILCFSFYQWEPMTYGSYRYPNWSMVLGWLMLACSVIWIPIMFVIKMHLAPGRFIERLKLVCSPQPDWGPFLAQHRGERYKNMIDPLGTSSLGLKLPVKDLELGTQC

[2] = target: T2, Sodium- and chloride-dependent glycine transporter 1 (Rattus norvegicus, UniProt P28572); test: Inhibition of GlyT1 in primary rat cortical neurons assessed as reduction in [14C]glycine uptake after 2 hrs by microbeta scintillation counting method
T2 sequence (P28572 whole entry): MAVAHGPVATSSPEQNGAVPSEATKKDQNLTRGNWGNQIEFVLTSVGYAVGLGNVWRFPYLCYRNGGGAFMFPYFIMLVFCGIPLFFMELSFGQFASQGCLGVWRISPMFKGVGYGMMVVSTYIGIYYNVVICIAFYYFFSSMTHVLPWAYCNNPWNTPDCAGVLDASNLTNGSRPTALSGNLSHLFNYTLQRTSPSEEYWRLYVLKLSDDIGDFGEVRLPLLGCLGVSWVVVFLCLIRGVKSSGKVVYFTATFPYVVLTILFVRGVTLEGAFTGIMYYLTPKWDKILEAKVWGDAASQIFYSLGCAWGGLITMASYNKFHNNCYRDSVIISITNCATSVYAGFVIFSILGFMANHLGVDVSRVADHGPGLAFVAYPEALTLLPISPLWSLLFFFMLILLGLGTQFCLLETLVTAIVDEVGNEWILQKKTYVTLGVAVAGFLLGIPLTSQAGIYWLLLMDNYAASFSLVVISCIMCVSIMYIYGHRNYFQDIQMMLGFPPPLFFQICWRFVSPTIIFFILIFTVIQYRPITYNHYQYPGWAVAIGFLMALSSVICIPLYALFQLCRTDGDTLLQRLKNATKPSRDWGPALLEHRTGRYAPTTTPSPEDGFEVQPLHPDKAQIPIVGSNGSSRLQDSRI

[3] = target: T3, Sodium- and chloride-dependent glycine transporter 1 (Homo sapiens, UniProt P48067); test: Inhibition of recombinant human GlyT1c expressed in HEK293 cells assessed as reduction in [14C]glycine uptake after 2 hrs by microbeta scintillation counting method; type: cell-based
T3 sequence (P48067 whole entry): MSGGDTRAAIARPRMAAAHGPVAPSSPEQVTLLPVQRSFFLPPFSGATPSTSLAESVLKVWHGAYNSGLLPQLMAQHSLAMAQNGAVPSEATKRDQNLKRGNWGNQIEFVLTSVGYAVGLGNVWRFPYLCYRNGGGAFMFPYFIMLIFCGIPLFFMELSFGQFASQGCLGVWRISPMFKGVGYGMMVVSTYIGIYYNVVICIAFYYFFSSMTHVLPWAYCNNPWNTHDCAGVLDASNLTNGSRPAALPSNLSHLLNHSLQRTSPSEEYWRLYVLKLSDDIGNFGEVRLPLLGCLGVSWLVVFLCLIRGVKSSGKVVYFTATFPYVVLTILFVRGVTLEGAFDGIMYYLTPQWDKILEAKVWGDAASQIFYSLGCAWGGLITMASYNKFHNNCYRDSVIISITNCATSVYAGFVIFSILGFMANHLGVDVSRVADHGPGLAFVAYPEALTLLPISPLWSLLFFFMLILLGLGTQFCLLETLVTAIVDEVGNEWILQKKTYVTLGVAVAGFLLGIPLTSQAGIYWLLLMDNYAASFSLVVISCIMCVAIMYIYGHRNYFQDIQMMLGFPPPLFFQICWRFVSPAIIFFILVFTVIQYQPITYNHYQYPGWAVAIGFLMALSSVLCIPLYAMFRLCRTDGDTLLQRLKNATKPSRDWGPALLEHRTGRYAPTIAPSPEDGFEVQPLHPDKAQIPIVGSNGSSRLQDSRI

[4] = Intrinsic clearance in human liver microsomes at 1 uM assessed per mg protein at 37 degC up to 60 mins in presence of NADPH by HPLC-MS analysis; type: ADME, microsome; conditions: read-out: CLH
[5] = target: Voltage-gated inwardly rectifying potassium channel KCNH2 (Homo sapiens, UniProt Q12809); test: Inhibition of human ERG expressed in CHO cells at 10 nM to 10 uM at holding potential of -80 mV measured after 5 mins by QPatch automated patch clamp electrophysiology method
Cytochrome P450 2D6 = Cytochrome P450 2D6 (Homo sapiens, UniProt P10635); test: Inhibition of CYP2D6 in human liver microsomes using dextromethorphan as substrate measured after 10 mins in presence of NADPH by LC-MS/MS analysis
Cytochrome P450 3A4 = Cytochrome P450 3A4 (Homo sapiens, UniProt P08684); test: Inhibition of CYP3A4 in human liver microsomes using midazolam as substrate measured after 7 mins in presence of NADPH by LC-MS/MS analysis
[6] = Intrinsic clearance in rat liver microsomes at 1 uM assessed per mg protein at 37 degC up to 30 mins in presence of NADPH by HPLC-MS analysis; type: ADME, microsome; conditions: read-out: CLH
Cytochrome P450 2C9 = Cytochrome P450 2C9 (Homo sapiens, UniProt P11712); test: Inhibition of CYP2C9 in human liver microsomes using diclofenac as substrate measured after 10 mins in presence of NADPH by LC-MS/MS analysis
[7] = Efflux ratio of apparent permeability from basolateral to apical over apical to basolateral side in MDCK-MDR1 cells at 5 uM after 60 mins by LC-MS/MS analysis; conditions: dog
Cytochrome P450 2C19 = Cytochrome P450 2C19 (Homo sapiens, UniProt P33261); test: Inhibition of CYP2C19 in human liver microsomes using S-mephenytoin as substrate measured after 10 mins in presence of NADPH by LC-MS/MS analysis
[8] = Apparent permeability from apical to basolateral side in MDCK-MDR1 cells monolayer at 5 uM after 60 mins by LC-MS/MS analysis; conditions: dog
Cytochrome P450 1A2 = target: T4, Cytochrome P450 1A2 (Homo sapiens, UniProt P05177); test: Inhibition of CYP1A2 in human liver microsomes using phenacetin as substrate measured after 10 mins in presence of NADPH by LC-MS/MS analysis
T4 sequence (P05177 whole entry): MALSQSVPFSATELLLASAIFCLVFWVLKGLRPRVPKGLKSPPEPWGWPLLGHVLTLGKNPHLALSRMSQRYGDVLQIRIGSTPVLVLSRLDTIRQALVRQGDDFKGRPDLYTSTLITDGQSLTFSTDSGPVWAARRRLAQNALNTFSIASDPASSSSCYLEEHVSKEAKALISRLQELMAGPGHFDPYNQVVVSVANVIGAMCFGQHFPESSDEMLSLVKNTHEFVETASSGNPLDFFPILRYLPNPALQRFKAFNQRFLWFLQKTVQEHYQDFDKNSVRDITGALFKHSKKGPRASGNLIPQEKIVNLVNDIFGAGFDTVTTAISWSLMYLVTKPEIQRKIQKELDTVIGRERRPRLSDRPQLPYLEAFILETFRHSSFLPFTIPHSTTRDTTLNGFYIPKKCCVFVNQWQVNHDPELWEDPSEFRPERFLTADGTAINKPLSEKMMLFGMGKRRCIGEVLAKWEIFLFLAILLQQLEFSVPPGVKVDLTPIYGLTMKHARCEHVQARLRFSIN

[9] = Apparent permeability from basolateral to apical side in MDCK-MDR1 cells monolayer at 5 uM after 60 mins by LC-MS/MS analysis; conditions: dog

Sequence of Cytochrome P450 2D6 (P10635 whole entry): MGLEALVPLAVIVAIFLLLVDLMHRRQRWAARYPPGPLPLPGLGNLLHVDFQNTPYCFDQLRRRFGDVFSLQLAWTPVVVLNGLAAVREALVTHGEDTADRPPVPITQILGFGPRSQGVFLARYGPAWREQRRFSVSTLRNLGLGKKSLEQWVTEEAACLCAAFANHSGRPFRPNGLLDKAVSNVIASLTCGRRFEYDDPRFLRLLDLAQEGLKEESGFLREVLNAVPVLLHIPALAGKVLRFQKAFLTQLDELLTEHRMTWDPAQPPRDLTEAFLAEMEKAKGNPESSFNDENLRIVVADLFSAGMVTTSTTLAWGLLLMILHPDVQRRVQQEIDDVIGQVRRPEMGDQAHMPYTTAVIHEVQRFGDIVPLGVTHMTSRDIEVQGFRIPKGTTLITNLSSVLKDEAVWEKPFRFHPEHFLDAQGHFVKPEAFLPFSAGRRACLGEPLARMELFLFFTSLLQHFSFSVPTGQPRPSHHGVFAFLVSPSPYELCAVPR
Sequence of Cytochrome P450 2C9 (P11712 whole entry): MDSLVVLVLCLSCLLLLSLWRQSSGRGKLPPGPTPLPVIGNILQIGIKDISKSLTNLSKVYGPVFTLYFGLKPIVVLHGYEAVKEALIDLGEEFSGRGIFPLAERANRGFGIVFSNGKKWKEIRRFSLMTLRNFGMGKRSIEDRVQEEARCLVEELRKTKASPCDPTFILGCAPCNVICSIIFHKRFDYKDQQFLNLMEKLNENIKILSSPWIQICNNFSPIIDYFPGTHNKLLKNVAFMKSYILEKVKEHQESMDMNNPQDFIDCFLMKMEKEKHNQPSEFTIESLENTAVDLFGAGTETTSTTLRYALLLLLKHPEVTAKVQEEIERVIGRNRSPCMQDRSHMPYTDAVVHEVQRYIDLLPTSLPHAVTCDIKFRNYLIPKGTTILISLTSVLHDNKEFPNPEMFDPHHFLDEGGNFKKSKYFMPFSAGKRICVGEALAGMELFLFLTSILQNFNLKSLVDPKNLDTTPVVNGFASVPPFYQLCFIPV
Sequence of Cytochrome P450 3A4 (P08684 whole entry): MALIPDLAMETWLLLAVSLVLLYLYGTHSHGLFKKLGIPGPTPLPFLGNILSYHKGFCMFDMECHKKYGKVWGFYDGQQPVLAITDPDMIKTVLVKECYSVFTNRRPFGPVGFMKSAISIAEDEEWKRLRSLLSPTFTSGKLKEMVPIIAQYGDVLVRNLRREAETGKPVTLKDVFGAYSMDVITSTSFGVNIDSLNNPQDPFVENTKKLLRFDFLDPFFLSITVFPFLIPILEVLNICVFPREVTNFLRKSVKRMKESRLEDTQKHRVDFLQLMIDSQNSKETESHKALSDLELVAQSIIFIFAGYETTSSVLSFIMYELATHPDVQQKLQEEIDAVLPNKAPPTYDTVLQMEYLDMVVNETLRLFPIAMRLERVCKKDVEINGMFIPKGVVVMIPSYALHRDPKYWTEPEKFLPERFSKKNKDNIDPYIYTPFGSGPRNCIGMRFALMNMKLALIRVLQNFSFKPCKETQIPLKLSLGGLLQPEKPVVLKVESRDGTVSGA
Sequence of Cytochrome P450 2C19 (P33261 whole entry): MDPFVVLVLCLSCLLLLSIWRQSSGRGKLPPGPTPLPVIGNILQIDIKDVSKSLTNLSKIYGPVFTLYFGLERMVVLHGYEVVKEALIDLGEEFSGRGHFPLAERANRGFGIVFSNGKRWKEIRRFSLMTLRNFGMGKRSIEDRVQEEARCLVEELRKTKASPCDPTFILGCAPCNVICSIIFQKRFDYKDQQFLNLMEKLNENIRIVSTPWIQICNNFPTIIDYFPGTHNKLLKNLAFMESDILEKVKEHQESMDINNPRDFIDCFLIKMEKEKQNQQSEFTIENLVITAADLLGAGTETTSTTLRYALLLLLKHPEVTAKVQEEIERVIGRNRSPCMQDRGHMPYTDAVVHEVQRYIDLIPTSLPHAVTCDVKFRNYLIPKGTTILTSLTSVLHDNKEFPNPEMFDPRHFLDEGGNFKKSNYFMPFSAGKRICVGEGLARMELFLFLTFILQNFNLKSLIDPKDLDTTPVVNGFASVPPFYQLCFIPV
Sequence of Voltage-gated inwardly rectifying potassium channel KCNH2 (Q12809 whole entry): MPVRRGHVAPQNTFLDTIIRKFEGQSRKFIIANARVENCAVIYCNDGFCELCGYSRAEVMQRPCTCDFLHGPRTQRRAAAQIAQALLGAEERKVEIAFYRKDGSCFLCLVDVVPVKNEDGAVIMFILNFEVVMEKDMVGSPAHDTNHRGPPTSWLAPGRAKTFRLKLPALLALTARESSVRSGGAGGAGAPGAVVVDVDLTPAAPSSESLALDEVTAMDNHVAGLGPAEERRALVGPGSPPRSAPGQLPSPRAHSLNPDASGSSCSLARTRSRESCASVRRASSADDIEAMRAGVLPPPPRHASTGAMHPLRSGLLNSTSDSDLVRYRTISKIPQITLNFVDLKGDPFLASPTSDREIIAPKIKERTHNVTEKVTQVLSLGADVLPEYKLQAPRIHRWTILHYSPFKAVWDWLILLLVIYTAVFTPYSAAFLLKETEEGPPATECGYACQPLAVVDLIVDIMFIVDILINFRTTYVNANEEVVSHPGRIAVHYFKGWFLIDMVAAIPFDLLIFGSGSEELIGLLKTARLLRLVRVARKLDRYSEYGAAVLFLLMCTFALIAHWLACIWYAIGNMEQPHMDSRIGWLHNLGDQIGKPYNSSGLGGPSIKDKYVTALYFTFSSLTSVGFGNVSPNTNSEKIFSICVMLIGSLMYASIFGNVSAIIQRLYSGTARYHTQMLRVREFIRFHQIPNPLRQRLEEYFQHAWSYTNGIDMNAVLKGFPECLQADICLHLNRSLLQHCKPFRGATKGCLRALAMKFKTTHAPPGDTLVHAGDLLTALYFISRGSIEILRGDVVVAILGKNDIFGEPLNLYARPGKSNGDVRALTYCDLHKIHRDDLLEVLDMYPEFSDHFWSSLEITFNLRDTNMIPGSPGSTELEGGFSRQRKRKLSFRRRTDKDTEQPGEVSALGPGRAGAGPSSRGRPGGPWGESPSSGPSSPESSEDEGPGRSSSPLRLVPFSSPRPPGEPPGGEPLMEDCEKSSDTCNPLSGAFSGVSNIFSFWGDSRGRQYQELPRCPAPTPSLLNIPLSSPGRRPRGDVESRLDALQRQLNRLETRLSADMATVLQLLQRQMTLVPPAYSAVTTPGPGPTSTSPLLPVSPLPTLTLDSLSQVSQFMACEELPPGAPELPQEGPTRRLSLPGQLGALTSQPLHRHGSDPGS

| Compound | IC50 [1] | IC50 [2] | IC50 [3] | also measured |
| --- | --- | --- | --- | --- |
| Cc1cc(-n2cc3c(n2)CN(C(=O)c2cc(S(C)(=O)=O)ccc2N2CCC(F)(F)CC2)C3)ccn1 | > 10000 nM | 4 nM | 7 nM | – |
| CC(C)Oc1ccc(C#N)cc1C(=O)N1Cc2cn(-c3ccccc3)nc2C1 | > 10000 nM | 161 nM | 105 nM | – |
| CC(C)S(=O)(=O)c1ccc(O[C@@H](C)C(F)(F)F)c(C(=O)N2Cc3cn(-c4ccccc4)nc3C2)c1 | > 10000 nM | 79 nM | 406 nM | microsomal CLint at 1 µM [4]: 10 µL/min/mg; IC50 [5]: > 10000 nM; IC50 (Cytochrome P450 2D6): > 10000 nM; IC50 (Cytochrome P450 3A4): > 10000 nM; microsomal CLint at 1 µM [6]: 1.8 µL/min/mg; IC50 (Cytochrome P450 2C9): > 10000 nM; efflux ratio at 1 h, 5 µM [7]: 2.2; IC50 (Cytochrome P450 2C19): > 10000 nM; Papp A→B at 1 h, 5 µM [8]: 56.6 ×10⁻⁶ cm/s; IC50 (Cytochrome P450 1A2): > 10000 nM; Papp B→A at 1 h, 5 µM [9]: 123 ×10⁻⁶ cm/s |
| Cc1cc(-n2cc3c(n2)CN(C(=O)c2cc(C#N)ccc2O[C@@H](C)C(F)(F)F)C3)ccn1 | > 10000 nM | 27 nM | 18 nM | – |
| Cc1cc(-n2cc3c(n2)CN(C(=O)c2cc(S(C)(=O)=O)ccc2-c2cccc(F)c2)C3)ccn1 | > 10000 nM | 2 nM | 4 nM | – |
| CC(C)Oc1ccc(C#N)cc1C(=O)N1Cc2cn(-c3cncc(F)c3)nc2C1 | > 10000 nM | 183 nM | 113 nM | – |
| CS(=O)(=O)c1ccc(N2CCC(F)(F)CC2)c(C(=O)N2Cc3cn(-c4ccccc4F)nc3C2)c1 | > 10000 nM | 12 nM | – | – |
| CCS(=O)(=O)c1ccc(O[C@@H](C)C(F)(F)F)c(C(=O)N2Cc3cn(-c4ccccc4F)nc3C2)c1 | > 10000 nM | 9 nM | 29 nM | microsomal CLint at 1 µM [4]: 0.9 µL/min/mg; IC50 [5]: > 10000 nM; IC50 (Cytochrome P450 2D6): > 10000 nM; IC50 (Cytochrome P450 3A4): > 10000 nM; IC50 (Cytochrome P450 2C9): > 10000 nM; efflux ratio at 1 h, 5 µM [7]: 2.9; IC50 (Cytochrome P450 2C19): > 10000 nM; Papp A→B at 1 h, 5 µM [8]: 18 ×10⁻⁶ cm/s; IC50 (Cytochrome P450 1A2): > 10000 nM; Papp B→A at 1 h, 5 µM [9]: 51.9 ×10⁻⁶ cm/s |
| CCS(=O)(=O)c1ccc(O[C@@H](C)C(F)(F)F)c(C(=O)N2Cc3cn(-c4ccnc(C)c4)nc3C2)c1 | > 10000 nM | 4 nM | 12 nM | – |
| N#Cc1ccc(-c2cccc(F)c2)c(C(=O)N2Cc3cn(-c4cncc(F)c4)nc3C2)c1 | > 10000 nM | 619 nM | – | – |
| CC(C)Oc1ccc(S(C)(=O)=O)cc1C(=O)N1Cc2cn(-c3ccccc3F)nc2C1 | > 10000 nM | 18 nM | 23 nM | – |
| Cc1cccc(-n2cc3c(n2)CN(C(=O)c2cc(S(C)(=O)=O)ccc2O[C@@H](C)C(F)(F)F)C3)c1 | > 10000 nM | 12 nM | 23 nM | – |
| CS(=O)(=O)c1ccc(N2CCC(F)(F)CC2)c(C(=O)N2Cc3cn(-c4cncc(F)c4)nc3C2)c1 | > 10000 nM | 10 nM | – | – |
| CCS(=O)(=O)c1ccc(O[C@@H](C)C(F)(F)F)c(C(=O)N2Cc3cn(-c4cncc(F)c4)nc3C2)c1 | > 10000 nM | 8 nM | 27 nM | microsomal CLint at 1 µM [4]: 1.3 µL/min/mg; IC50 [5]: > 10000 nM; IC50 (Cytochrome P450 2D6): > 10000 nM; IC50 (Cytochrome P450 3A4): > 10000 nM; microsomal CLint at 1 µM [6]: 5.4 µL/min/mg; IC50 (Cytochrome P450 2C9): > 10000 nM; efflux ratio at 1 h, 5 µM [7]: 17.2; IC50 (Cytochrome P450 2C19): > 10000 nM; Papp A→B at 1 h, 5 µM [8]: 5.8 ×10⁻⁶ cm/s; IC50 (Cytochrome P450 1A2): > 10000 nM; Papp B→A at 1 h, 5 µM [9]: 99 ×10⁻⁶ cm/s |
| Cc1cc(-n2cc3c(n2)CN(C(=O)c2cc(S(C)(=O)=O)ccc2O[C@@H](C)C(F)(F)F)C3)ccn1 | > 10000 nM | 3 nM | 12 nM | – |
| C[C@H](Oc1ccc(C#N)cc1C(=O)N1Cc2cn(C3CCCC3)nc2C1)C(F)(F)F | – | 331 nM | 210 nM | – |
| Cc1cc(-n2cc3c(n2)CN(C(=O)c2cc(C#N)ccc2-c2cccc(F)c2)C3)ccn1 | > 10000 nM | 78 nM | 55 nM | – |
| CS(=O)(=O)c1ccc(-c2cccc(F)c2)c(C(=O)N2Cc3cn(-c4ccccc4F)nc3C2)c1 | > 10000 nM | 12 nM | 10 nM | – |
| Cc1cc(-n2cc3c(n2)CN(C(=O)c2cc(C#N)ccc2N2CCC(F)(F)CC2)C3)ccn1 | > 10000 nM | 4 nM | – | – |
| CS(=O)(=O)c1ccc(-c2cccc(F)c2)c(C(=O)N2Cc3cn(-c4cncc(F)c4)nc3C2)c1 | > 10000 nM | 10 nM | 6 nM | – |
